Data published in article PMC12606624 (Journal of Chemical Information and Modeling, 2025).

How the values were obtained:
[1] = test system: His-RAD51 [F86E, A89E]; assay: Biolayer interferometry (BLI), bioBRC4 immobilized on Streptavidin biosensors; format: binding; details: 460, 230 and 115 nM His-RAD51 [F86E, two replicates, pH 8.00, 25 °C, 180 s association, 180 s dissociation
Procedure: Biolayer interferometry (BLI) experiments were performed by utilizing an Octet K2 system (Sartorius). All BLI experiments were carried out in an assay buffer containing 20 mM Hepes, pH 8.00, 100 mM Na2SO4, 5% glycerol, 0.05% Tween 20, 0.1% PEG8000, and 0.5 mM Sodium Deoxycholate. The following protocol was applied: 60 s baseline, 240 s loading, 240 s baseline, 180 s association, 180 s dissociation. For every step, shaking at 1000 rpm was enabled, and the temperature was set at 25 °C. Streptavidin Octet biosensors (18-5019, Sartorius) were initially dipped into assay buffer to record an initial baseline for 60 s. BioBRC4 was solubilized in 100% DMSO at a 2 mM concentration, diluted at a final 1 μM concentration in assay buffer, and then immobilized to the Streptavidin sensor through a 240 s loading step. After the loading stage, a second baseline of 240 s was recorded in wells containing only assay buffer to verify the stability of the signal and remove unbound peptide. […] Data were analyzed using Octet Analysis Studio 12.2 by subtracting, from recorded sensorgrams, the signals of both the reference well and reference sensors to remove the signals due to nonspecific binding. The recorded sensorgrams were corrected by aligning to the average of the second baseline steps and applying Savitzky–Golay filtering and interstep correction based on the second baseline step. […]

[2] = test system: monomeric His-RAD51 [F86E, A89E]; assay: Static light scattering (SLS) binding test, SEC columns in tandem
Procedure: Static light scattering (SLS) analyses were performed on a Viscotek GPCmax/TDA (Malvern, UK) instrument, connected in tandem with a series of two TSKgel G3000PWxl size-exclusion chromatography columns (Tosoh Bioscience) as already described in ref . For all the experiments, the system was equilibrated with buffer containing 20 mM Hepes pH 8.00, 100 mM Na2SO4, and 5% glycerol. […] Data analysis was performed using Viscotek software, calibrating the instrument with Bovine Serum Albumin at 5 mg/mL. Data were exported as .csv files and regraphed using GraphPad Prism 10.

[3] = test system: monomeric RAD51 (His-RAD51[F86E, A89E]); assay: Cross-linking with BS3 or EDAC, Coomassie blue SDS-PAGE and Western blot; format: binding; details: Coomassie blue-stained SDS-PAGE; BS3 1 mM, 1:1; EDAC 0.2% (w/v), 1:2
Procedure: For cross-linking with bis(sulfosuccinimidyl)-suberate (BS3), the purified His-RAD51[F86E, A89E] concentration was adjusted to 24 μM (=0.98 mg/mL). […] The mixture was incubated for 30 min at 20 °C on a thermoblock to allow for complex formation and then cross-linked with a final concentration of 1 mM BS3 (previously solubilized in PBS as a 50 mM stock). After 30 min at the same temperature, 4× Laemmli Sample Buffer (BioRad #1610747) was added to cross-linked samples and boiled at 95 °C for 5 min. […] The mixture was incubated for 1 h at 20 °C to allow for complex formation and then cross-linked with a final concentration of 0.2% (w/v) EDAC (previously solubilized in DMSO as a 10% w/v stock) for 1 h at the same temperature. 4× Laemmli Sample Buffer (BioRad #1610747) was then added to cross-linked samples and boiled at 95 °C for 5 min.
The efficiency of cross-linking reactions was evaluated through Coomassie blue staining and Western blot (WB) analysis. Prepared cross-linked samples were resolved using a 4–15% SDS-PAGE gel (Criterion TGX Precast Midi Protein Gel), which was stained using page blue protein staining solution (Thermo Fisher, 24620) according to manufacturer protocols. […] After three washes in TBS-T, chemiluminescence was detected using the Clarity Western ECL substrate (Biorad, #1705061), and images were recorded using a ChemiDoc MP Imaging System (Biorad). […]

binding to monomeric RAD51 [1]: showing the binding of monomeric His-
Substance: Bio-Ahx-KEPTLLGFHTASGKKVKIAKESLDKVKNLFDEKEQ-COOH [bioBRC4, modified version of BRC4 harboring a biotin at the N-ter]
binding to monomeric RAD51 ([2]; SLS and BLI (two orthogonal methods), SLS: RAD51 [F86E, A89E] 24 μM, 1 h at 25 °C, 4-fold excess peptide, 20 mM Hepes pH 8.00, 100 mM Na2SO4, 5% glycerol, 5% DMSO for BioBRC4): confirmed the binding of bioBRC4 to monomeric RAD51 | effect of biotin modification on binding to monomeric RAD51 ([2]; bioBRC4 vs BRC4, assessed from SLS and BLI (Figure S3)): did not negatively affect its binding to monomeric RAD51 | cross-linking to monomeric RAD51, BS3 versus EDAC [3]: BS3 cross-linked bioBRC4 to the monomeric RAD51 more effectively than EDAC
